Measured values taken from publication PMC9067983, “Identification of highly selective type II kinase inhibitors with chiral peptidomimetic tails” (Journal of Enzyme Inhibition and Medicinal Chemistry, 2022).
Where a SMILES comes first, the peptide text is derived from it. [ ]: non-standard residue; d: D form. The star is where a group is joined. X1 = Cc1ccc(Nc2ncc3c(n2)N(C)C(=O)N(c2cc(C(=O)*)ccc2C)C3)cn1; Aib = CC(C)(N)C(=O)O

Experiments:
Experiment in all cases: kinase selectivity profiling
Type in all cases: biochemical
Settings in all cases: 10µM ATP, read-out: % inhibition (relative to DMSO)
ALK1/ACVRL1 = target: T1, ALK1/ACVRL1 (Homo sapiens, UniProt P37023)
T1 construct: purchased Reaction Biology Corp
Method: (§1) Full panel kinase profiling and kinase IC50 measurement were performed by using Reaction Biology Corp. (San Diego, USA).

ALK6/BMPR1B = target: T2, ALK6/BMPR1B (Homo sapiens, UniProt O00238)
T2 construct: purchased Reaction Biology Corp
Method: as §1

BMPR2 = target: T3, BMPR2 (Homo sapiens, UniProt Q13873)
T3 construct: purchased Reaction Biology Corp
Method: as §1

CDK1/cyclin B = target: T4, CDK1/cyclin B (Homo sapiens, UniProt P06493)
T4 construct: purchased Reaction Biology Corp
Method: as §1

CDK18/cyclin Y (PCTK3) = target: T5, CDK18/cyclin Y (PCTK3) (Homo sapiens, UniProt Q07002)
T5 construct: purchased Reaction Biology Corp
Method: as §1

CDK19/cyclin C = target: T6, CDK19/cyclin C (Homo sapiens, UniProt Q9BWU1)
T6 construct: purchased Reaction Biology Corp
Method: as §1

CK1d = target: T7, CK1d (Homo sapiens, UniProt P48730)
T7 construct: purchased Reaction Biology Corp
Method: as §1

CK2a2 = target: T8, CK2a2 (Homo sapiens, UniProt P19784)
T8 construct: purchased Reaction Biology Corp
Method: as §1

COT1/MAP3K8 = target: T9, COT1/MAP3K8 (Homo sapiens, UniProt P41279)
T9 construct: purchased Reaction Biology Corp
Method: as §1

DCAMKL2 = target: T10, DCAMKL2 (Homo sapiens, UniProt Q8N568)
T10 construct: purchased Reaction Biology Corp
Method: as §1

DYRK1/DYRK1A = target: T11, DYRK1/DYRK1A (Homo sapiens, UniProt Q13627)
T11 construct: purchased Reaction Biology Corp
Method: as §1

EPHB1 = target: T12, EPHB1 (Homo sapiens, UniProt P54762)
T12 construct: purchased Reaction Biology Corp
Method: as §1

FGFR4 = target: T13, FGFR4 (Homo sapiens, UniProt P22455)
T13 construct: purchased Reaction Biology Corp
Method: as §1

FMS = target: T14, FMS (Homo sapiens, UniProt P07333)
T14 construct: purchased Reaction Biology Corp
Method: as §1

IR = target: T15, IR (Homo sapiens, UniProt P06213)
T15 construct: purchased Reaction Biology Corp
T15 sequence (P06213 28-1382): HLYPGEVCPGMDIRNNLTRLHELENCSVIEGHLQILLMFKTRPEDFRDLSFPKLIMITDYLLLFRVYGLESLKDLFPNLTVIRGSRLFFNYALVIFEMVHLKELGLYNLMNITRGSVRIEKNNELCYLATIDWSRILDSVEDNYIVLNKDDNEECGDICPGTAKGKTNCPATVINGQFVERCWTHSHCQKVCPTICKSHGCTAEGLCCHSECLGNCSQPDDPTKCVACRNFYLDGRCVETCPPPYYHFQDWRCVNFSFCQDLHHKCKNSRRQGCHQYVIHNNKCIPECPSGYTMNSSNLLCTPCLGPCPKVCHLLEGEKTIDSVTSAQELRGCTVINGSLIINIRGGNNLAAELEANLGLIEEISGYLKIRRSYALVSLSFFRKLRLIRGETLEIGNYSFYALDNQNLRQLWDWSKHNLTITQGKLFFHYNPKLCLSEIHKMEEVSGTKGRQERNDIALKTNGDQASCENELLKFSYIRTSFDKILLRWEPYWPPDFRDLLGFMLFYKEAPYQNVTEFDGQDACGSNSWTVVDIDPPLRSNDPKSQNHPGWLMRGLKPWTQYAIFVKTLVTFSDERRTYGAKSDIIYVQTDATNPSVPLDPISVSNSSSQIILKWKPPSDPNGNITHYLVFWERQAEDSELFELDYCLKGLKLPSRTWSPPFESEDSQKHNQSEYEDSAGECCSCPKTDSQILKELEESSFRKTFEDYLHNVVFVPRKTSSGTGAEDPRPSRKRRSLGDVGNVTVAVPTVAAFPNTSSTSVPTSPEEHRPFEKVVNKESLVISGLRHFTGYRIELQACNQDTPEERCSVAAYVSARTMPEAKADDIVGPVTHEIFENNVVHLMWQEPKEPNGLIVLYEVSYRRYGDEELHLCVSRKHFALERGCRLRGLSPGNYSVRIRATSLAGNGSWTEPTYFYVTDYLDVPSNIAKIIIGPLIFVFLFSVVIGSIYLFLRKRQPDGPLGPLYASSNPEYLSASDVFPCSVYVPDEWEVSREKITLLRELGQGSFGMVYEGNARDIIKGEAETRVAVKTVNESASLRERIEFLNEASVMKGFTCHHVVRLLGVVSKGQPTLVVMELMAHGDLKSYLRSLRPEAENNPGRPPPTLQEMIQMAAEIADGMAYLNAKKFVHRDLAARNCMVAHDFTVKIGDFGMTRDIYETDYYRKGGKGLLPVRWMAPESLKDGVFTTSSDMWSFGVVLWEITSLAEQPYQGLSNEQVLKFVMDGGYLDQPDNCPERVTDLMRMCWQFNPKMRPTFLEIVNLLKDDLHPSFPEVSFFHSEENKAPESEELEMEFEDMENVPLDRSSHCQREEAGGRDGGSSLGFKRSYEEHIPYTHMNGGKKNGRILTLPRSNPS
Method: as §1

IRAK1 = target: T16, IRAK1 (Homo sapiens, UniProt P51617)
T16 construct: purchased Reaction Biology Corp
Method: as §1

JNK3 = target: T17, JNK3 (Homo sapiens, UniProt P53779)
T17 construct: purchased Reaction Biology Corp
Method: as §1

KSR2 = target: T18, KSR2 (Homo sapiens, UniProt Q6VAB6)
T18 construct: purchased Reaction Biology Corp
Method: as §1

MARK3 = target: T19, MARK3 (Homo sapiens, UniProt P27448)
T19 construct: purchased Reaction Biology Corp
Method: as §1

MARK4 = target: T20, MARK4 (Homo sapiens, UniProt Q96L34)
T20 construct: purchased Reaction Biology Corp
T20 sequence (Q96L34 whole entry): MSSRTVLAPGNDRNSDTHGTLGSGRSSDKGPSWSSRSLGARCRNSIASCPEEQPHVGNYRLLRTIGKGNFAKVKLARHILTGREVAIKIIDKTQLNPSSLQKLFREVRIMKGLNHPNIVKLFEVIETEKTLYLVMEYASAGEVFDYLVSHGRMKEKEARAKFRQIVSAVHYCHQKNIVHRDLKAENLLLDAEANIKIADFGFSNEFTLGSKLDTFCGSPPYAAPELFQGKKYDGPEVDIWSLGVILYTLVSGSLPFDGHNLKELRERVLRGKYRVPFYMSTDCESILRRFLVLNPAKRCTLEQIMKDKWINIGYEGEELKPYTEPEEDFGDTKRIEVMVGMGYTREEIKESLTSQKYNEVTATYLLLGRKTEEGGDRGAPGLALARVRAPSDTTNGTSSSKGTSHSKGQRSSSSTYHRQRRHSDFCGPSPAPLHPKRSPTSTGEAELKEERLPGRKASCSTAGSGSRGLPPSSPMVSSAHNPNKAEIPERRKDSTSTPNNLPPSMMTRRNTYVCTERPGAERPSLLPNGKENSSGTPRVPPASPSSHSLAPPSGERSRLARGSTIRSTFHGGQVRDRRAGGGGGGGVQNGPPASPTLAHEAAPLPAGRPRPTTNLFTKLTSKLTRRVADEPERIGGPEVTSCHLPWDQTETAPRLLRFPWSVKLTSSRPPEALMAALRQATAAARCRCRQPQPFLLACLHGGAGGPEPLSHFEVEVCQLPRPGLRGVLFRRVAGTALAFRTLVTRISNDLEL
Method: as §1

MEKK3 = target: T21, MEKK3 (Homo sapiens, UniProt Q99759)
T21 construct: purchased Reaction Biology Corp
T21 sequence (Q99759 whole entry): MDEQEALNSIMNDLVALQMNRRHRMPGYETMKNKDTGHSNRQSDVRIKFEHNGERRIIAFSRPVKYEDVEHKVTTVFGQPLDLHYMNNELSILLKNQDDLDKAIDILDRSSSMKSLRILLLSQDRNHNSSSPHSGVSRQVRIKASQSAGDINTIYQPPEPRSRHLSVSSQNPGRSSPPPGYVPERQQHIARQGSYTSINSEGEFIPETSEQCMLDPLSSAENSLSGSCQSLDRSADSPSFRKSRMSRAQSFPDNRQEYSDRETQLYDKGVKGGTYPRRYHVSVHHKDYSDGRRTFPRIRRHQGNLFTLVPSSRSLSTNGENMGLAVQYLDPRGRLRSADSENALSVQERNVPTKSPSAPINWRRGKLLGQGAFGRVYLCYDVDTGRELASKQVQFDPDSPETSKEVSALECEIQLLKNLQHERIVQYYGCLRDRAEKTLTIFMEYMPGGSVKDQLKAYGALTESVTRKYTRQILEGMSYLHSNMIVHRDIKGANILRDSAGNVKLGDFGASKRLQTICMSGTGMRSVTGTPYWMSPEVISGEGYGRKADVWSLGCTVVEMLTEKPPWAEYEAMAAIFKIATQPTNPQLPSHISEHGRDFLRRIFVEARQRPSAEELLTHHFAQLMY
Method: as §1

MLCK2/MYLK2 = target: T22, MLCK2/MYLK2 (Homo sapiens, UniProt Q9H1R3)
T22 construct: purchased Reaction Biology Corp
Method: as §1

MNK1 = target: T23, MNK1 (Homo sapiens, UniProt Q9BUB5)
T23 construct: purchased Reaction Biology Corp
Method: as §1

MNK2 = target: T24, MNK2 (Homo sapiens, UniProt Q9HBH9)
T24 construct: purchased Reaction Biology Corp
Method: as §1

MRCKa/CDC42BPA = target: T25, MRCKa/CDC42BPA (Homo sapiens, UniProt Q5VT25)
T25 construct: purchased Reaction Biology Corp
Method: as §1

MST1/STK4 = target: T26, MST1/STK4 (Homo sapiens, UniProt Q13043)
T26 construct: purchased Reaction Biology Corp
Method: as §1

MYO3A = target: T27, MYO3A (Homo sapiens, UniProt Q8NEV4)
T27 construct: purchased Reaction Biology Corp
Method: as §1

NEK4 = target: T28, NEK4 (Homo sapiens, UniProt P51957)
T28 construct: purchased Reaction Biology Corp
Method: as §1

PASK = target: T29, PASK (Homo sapiens, UniProt Q96RG2)
T29 construct: purchased Reaction Biology Corp
Method: as §1

PHKg1 = target: T30, PHKg1 (Homo sapiens, UniProt Q16816)
T30 construct: purchased Reaction Biology Corp
Method: as §1

PKCb2 = target: T31, PKCb2 (Homo sapiens, UniProt P05771)
T31 construct: purchased Reaction Biology Corp
Method: as §1

PLK2 = target: T32, PLK2 (Homo sapiens, UniProt Q9NYY3)
T32 construct: purchased Reaction Biology Corp
Method: as §1

RIPK2 = target: T33, RIPK2 (Homo sapiens, UniProt O43353)
T33 construct: purchased Reaction Biology Corp
Method: as §1

RON/MST1R = target: T34, RON/MST1R (Homo sapiens, UniProt Q04912)
T34 construct: purchased Reaction Biology Corp
Method: as §1

RSK2 = target: T35, RSK2 (Homo sapiens, UniProt P51812)
T35 construct: purchased Reaction Biology Corp
Method: as §1

SIK2 = target: T36, SIK2 (Homo sapiens, UniProt Q9H0K1)
T36 construct: purchased Reaction Biology Corp
Method: as §1

SLK/STK2 = target: T37, SLK/STK2 (Homo sapiens, UniProt Q9H2G2)
T37 construct: purchased Reaction Biology Corp
T37 sequence (Q9H2G2 whole entry): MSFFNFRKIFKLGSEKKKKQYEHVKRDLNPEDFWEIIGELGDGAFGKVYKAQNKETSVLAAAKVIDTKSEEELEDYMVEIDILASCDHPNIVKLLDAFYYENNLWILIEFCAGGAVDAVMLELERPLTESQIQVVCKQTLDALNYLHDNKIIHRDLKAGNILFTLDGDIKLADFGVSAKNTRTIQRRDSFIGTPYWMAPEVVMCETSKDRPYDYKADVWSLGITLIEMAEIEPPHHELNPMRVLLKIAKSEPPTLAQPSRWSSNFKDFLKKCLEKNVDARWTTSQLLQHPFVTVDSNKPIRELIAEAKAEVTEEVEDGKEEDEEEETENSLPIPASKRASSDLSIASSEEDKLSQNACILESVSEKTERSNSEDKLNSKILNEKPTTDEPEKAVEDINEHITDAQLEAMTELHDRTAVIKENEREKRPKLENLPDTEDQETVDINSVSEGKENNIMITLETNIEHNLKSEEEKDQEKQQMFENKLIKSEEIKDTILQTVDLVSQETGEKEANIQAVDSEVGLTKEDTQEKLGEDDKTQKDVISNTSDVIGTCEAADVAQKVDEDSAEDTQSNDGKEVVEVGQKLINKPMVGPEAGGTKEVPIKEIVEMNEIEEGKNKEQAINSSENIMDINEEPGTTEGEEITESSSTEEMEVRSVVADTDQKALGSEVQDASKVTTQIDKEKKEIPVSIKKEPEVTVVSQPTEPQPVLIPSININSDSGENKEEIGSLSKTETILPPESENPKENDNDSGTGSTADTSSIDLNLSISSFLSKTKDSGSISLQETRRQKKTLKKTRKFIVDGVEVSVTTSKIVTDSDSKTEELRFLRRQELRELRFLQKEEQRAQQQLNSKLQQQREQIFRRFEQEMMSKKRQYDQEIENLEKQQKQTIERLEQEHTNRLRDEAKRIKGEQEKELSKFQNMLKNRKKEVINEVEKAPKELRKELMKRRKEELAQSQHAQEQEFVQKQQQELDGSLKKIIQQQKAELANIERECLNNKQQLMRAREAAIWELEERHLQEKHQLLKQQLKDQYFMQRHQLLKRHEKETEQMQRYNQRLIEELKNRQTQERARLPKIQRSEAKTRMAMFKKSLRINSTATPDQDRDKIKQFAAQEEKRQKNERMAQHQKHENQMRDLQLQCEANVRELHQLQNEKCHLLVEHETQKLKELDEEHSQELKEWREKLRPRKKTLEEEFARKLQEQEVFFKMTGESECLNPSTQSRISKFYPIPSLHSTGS
Method: as §1

SSTK/TSSK6 = target: T38, SSTK/TSSK6 (Homo sapiens, UniProt Q9BXA6)
T38 construct: purchased Reaction Biology Corp
T38 sequence (Q9BXA6 whole entry): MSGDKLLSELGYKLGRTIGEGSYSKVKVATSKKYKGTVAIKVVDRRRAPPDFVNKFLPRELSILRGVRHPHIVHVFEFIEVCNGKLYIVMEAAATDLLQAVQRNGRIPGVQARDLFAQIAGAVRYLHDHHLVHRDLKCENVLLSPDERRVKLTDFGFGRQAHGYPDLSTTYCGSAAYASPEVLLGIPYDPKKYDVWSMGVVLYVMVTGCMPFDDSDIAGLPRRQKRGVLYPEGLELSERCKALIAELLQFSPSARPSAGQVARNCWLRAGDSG
Method: as §1

STK38/NDR1 = target: T39, STK38/NDR1 (Homo sapiens, UniProt Q15208)
T39 construct: purchased Reaction Biology Corp
Method: as §1

TESK2 = target: T40, TESK2 (Homo sapiens, UniProt Q96S53)
T40 construct: purchased Reaction Biology Corp
Method: as §1

TRKB = target: T41, TRKB (Homo sapiens, UniProt Q16620)
T41 construct: purchased Reaction Biology Corp
Method: as §1

YES/YES1 = target: T42, YES/YES1 (Homo sapiens, UniProt P07947)
T42 construct: purchased Reaction Biology Corp
T42 sequence (P07947 whole entry): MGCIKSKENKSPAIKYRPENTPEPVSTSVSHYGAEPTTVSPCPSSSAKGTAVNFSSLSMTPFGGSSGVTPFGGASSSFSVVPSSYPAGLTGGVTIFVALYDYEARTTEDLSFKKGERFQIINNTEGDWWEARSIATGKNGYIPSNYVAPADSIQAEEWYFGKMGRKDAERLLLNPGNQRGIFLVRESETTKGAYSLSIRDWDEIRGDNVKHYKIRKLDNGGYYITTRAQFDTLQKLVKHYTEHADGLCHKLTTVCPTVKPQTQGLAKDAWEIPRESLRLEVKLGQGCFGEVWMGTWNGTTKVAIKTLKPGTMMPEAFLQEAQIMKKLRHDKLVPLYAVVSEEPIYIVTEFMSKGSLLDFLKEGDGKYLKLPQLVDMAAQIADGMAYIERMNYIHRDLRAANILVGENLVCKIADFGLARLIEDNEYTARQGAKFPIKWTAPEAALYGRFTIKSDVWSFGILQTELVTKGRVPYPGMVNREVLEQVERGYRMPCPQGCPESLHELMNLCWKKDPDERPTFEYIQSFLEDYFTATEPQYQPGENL
Method: as §1

SMILES: Cc1ccc(Nc2ncc3c(n2)N(C)C(=O)N(c2cc(C(=O)N[C@H](C(=O)N4CCC[C@H]4C(=O)NC(C)(C)C(=O)N[C@@H](CC(C)C)C(=O)N(C)C)C(C)C)ccc2C)C3)cn1 [7a, (S)-N-(1-(((S)-1-(dimethylamino)-4-methyl-1-oxopentan-2-yl)amino)-2-methyl-1-oxopropan-2-yl)-1-((4-methyl-3-(1-methyl-7-((6-methylpyridin-3-yl)amino)-2-oxo-1,4-dihydropyrimido[4,5-d]pyrimidin-3(2H)-yl)benzoyl)-L-valyl)pyrrolidine-2-carboxamide] (X1-VP[Aib]L-NMe2)
- inhibition at 1 µM (ALK1/ACVRL1): 17%
- inhibition at 1 µM (ALK6/BMPR1B): 16%
- inhibition at 1 µM (BMPR2): 10%
- inhibition at 1 µM (CDK1/cyclin B): 7%
- inhibition at 1 µM (CDK18/cyclin Y (PCTK3)): 4%
- inhibition at 1 µM (CDK19/cyclin C): 0%
- inhibition at 1 µM (CK1d): 11%
- inhibition at 1 µM (CK2a2): 3%
- inhibition at 1 µM (COT1/MAP3K8): 1%
- inhibition at 1 µM (DCAMKL2): 0%
- inhibition at 1 µM (DYRK1/DYRK1A): 20%
- inhibition at 1 µM (EPHB1): 16%
- inhibition at 1 µM (FGFR4): 5%
- inhibition at 1 µM (FMS): 60%
- inhibition at 1 µM (IR): 0%
- inhibition at 1 µM (IRAK1): 14%
- inhibition at 1 µM (JNK3): 1%
- inhibition at 1 µM (KSR2): 5%
- inhibition at 1 µM (MARK3): 4%
- inhibition at 1 µM (MARK4): 0%
- inhibition at 1 µM (MEKK3): 11%
- inhibition at 1 µM (MLCK2/MYLK2): 0%
- inhibition at 1 µM (MNK1): 8%
- inhibition at 1 µM (MNK2): 1%
- inhibition at 1 µM (MRCKa/CDC42BPA): 6%
- inhibition at 1 µM (MST1/STK4): 5%
- inhibition at 1 µM (MYO3A): 0%
- inhibition at 1 µM (NEK4): 0%
- inhibition at 1 µM (PASK): 0%
- inhibition at 1 µM (PHKg1): 7%
- inhibition at 1 µM (PKCb2): 0%
- inhibition at 1 µM (PLK2): 0%
- inhibition at 1 µM (RIPK2): 1%
- inhibition at 1 µM (RON/MST1R): 27%
- inhibition at 1 µM (RSK2): 0%
- inhibition at 1 µM (SIK2): 2%
- inhibition at 1 µM (SLK/STK2): 9%
- inhibition at 1 µM (SSTK/TSSK6): 0%
- inhibition at 1 µM (STK38/NDR1): 0%
- inhibition at 1 µM (TESK2): 4%
- inhibition at 1 µM (TRKB): 5%
- inhibition at 1 µM (YES/YES1): 62%
